Experimental data taken from patent US12329799B2, “Peptidyl inhibitors of calcineurin-NFAT interaction” (Ohio State Innovation Foundation, priority 2018, dated 2025).
Positions of bridges follow the written chain, without caps; N, C: chain ends. Non-standard residues stand in square brackets, D forms with d. Residues, ends and D or L forms follow the SMILES beside them. Chains are numbered I, II in the order given. *: point of attachment. Benzoyl(2,3-Cl2) = O=C(c1cccc(Cl)c1Cl)*; 2Nal = N[C@@H](Cc1ccc2ccccc2c1)C(=O)O; Tle = CC(C)(C)[C@H](N)C(=O)O; βAla = NCCC(=O)O

Tests used:
[1] = tested on: LPS-induced TNFα production in lung macrophages; test: LPS-induced TNFα secretion by lung macrophages (ELISA); type: cell-based, mouse
Source text: Cell supernatants were collected and analyzed for TNFα levels by R&D systems TNFα ELISA kit.

H441 (lung cancer) cells = test: MTT assay, H441; type: cell-based; settings: 72 h
Description: MTT Proliferation Assay. HeLa, Jurkat-Lucia, or H441 cells were seeded into a 96-well microplate (5000 cells per well) in full growth media and incubated at 37° C. overnight. A serial dilution of each compound was prepared in DPBS and then added to each well. The treated cells were incubated at 37° C. with 5% CO2 for 72 h. Following compound treatment, 10 μL of MTT stock solution was added to each well. After an additional 4 h at 37° C., 100 μL of SDS-HCl solubilizing solution was added to each well and the plate was returned to the incubator overnight at 37° C. A Tecan Infinite M1000 Pro microplate reader was used the following morning to measure the absorbance of the formazan product at 565 nm.

[2] = tested on: LPS-induced acute lung injury (ALI) in mice; test: LPS sepsis-induced acute lung injury, intranasal CNI93; type: in vivo, mouse; settings: i.n. 10 mg/kg
Description: As expected, LPS challenge of CPP9-VAVAA (SEQ ID NO: 224) treated mice increased the total protein in BALF by ˜2-fold and TNFα and IL-6 levels in BALF (FIGS. 11A, 11B, and 11D, respectively).
Mouse models of LPS sepsis. Mouse LPS sepsis-induced acute lung injury models were established by intraperitoneal injection of LPS at 10 mg/kg body weight. Acute lung injury was assessed by measuring secretion of TNFα, IL6 in to broncho alveolar lavage fluid (BALF), plasma levels of IL6 and TNFα, and neutrophilic infiltration. Pulmonary edema was measured by increased protein levels in BALF. Neutrophilic infiltration in to bronchoalveolar lavage fluid is determined by Hema 3.0 staining and number of neutrophils in BALF is quantitated.
Neutrophilic inflammation. BALF fluid from different treatment groups of mice was used to prepare Cytospin slides, stained using Hema 3 and number of neutrophils and macrophages per field view of microscopic view were counted and differences among groups calculated.

[3] = tested on: LPS-induced TNFα and IL-6 secretion, mouse total lung macrophages; test: Inhibition of TNFα and IL-6 secretion by macrophage; type: cell-based; settings: 100 nM, 1 μM, or 10 μM for 2 h, then LPS 6 h
Description: Mouse total lung macrophages were obtained from 5 mice and pooled. Macrophages were pretreated with 100 nM, 1 μM, or 10 μM inhibitor for 2 h and stimulated with LPS ([…]) or PBS for 6 h. Cell supernatants were collected and analyzed for TNFα levels (FIG. 20A) or IL-6 levels (FIG. 20B) by R&D Systems TNFα ELISA kit and R&D Systems IL-6 ELISA kit.

## CC[C@H](C)[C@H](NC(=O)[C@@H](NC(=O)c1cccc(Cl)c1Cl)C(C)(C)C)C(=O)N[C@H](C(=O)N[C@H](C(=O)N[C@H](C(=O)N[C@@H](CCC(N)=O)C(=O)N[C@@H](Cc1c[nH]cn1)C(=O)N[C@H](CC(C)C)C(=O)N[C@@H](CO)C(=O)NCCC(=O)N[C@@H](CCCCNC(=O)CC[C@@H]1NC(=O)[C@@H](CCCNC(=N)N)NC(=O)[C@H](CCCNC(=N)N)NC(=O)[C@@H](CCCNC(=N)N)NC(=O)[C@H](CCCNC(=N)N)NC(=O)[C@H](Cc2ccc3ccccc3c2)NC(=O)[C@@H](Cc2ccccc2)NC1=O)C(N)=O)[C@@H](C)O)[C@@H](C)CC)C(C)(C)C [CNI93] (I: {Benzoyl(2,3-Cl2)}-[Tle]I[Tle]ITQH[dL]S[βAla]K-NH2 / II: cyclo([2Nal]R[dR]R[dR]E[dF]); amide I:11-II:6 (inferred); ring closure inferred)
[1]; dose-dependent, 100 nM-10 μM, LPS 100 ng/mL, 16 h
  decrease of LPS-induced TNFα production: 24-59%
[1]; ex vivo assay
  potency as immunosuppressant relative to CsA: ~10 fold
H441 (lung cancer) cells; H441, 25 μM
  cytotoxicity: No significant cytotoxicity
H441 (lung cancer) cells; H441, 50 μM
  cell viability: Reduction in cell viability
[2]; 1 h before LPS i.p. 10 mg/kg
  neutrophilic infiltration into the lungs: prevented
  protection from LPS-induced production of cytokines and protein leakage into BALF: almost completely protected
[2]; LPS sepsis mice
  decrease of plasma level of IL6: ~4 fold
  decrease of plasma level of TNFα: ~4 fold
[3]
  secreted amounts of TNFα and IL6: dose-dependently reduced
